Measured values published in US11414442B2, “ARF6 inhibitors and related methods” (Navigen, Inc., priority 2017, dated 2022).
Values joined by “and” are separate entries in the source; they are usually repeats but may differ in a detail not shown here. Equal values may be shown once. “Also recorded” adds a separate entry of the source. Where a name gives a salt, the structure may show the parent alone. Read-outs that look alike come from different tables or passages of the source. Where no end group is shown, it is not given here. The star is where a group is joined. Myristoyl = CCCCCCCCCCCCCC(=O)*

Tests used:
ARF6 [1] = molecular target: T1, ARF6 (Homo sapiens, UniProt P62330); assay: ARF6 inhibition, biochemical fluorometric nucleotide exchange assay
T1 sequence (P62330 whole entry, species assumed): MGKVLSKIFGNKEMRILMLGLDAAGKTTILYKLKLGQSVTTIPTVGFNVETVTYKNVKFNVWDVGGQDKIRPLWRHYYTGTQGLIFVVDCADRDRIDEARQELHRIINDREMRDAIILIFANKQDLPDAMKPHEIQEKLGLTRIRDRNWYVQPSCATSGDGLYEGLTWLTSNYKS
Description: These ARF6 inhibitors were discovered using a high-throughput biochemical, fluorometric nucleotide exchange assay to screen 100,000 compounds from a commercially available compound library. Medicinal chemistry optimization efforts have also been conducted. In some embodiments, the clinical potential of the discovered small molecule ARF6 inhibitors can be limited by poor solubility. Accordingly, the synthesis and development of water soluble prodrugs of ARF6 inhibitors can be advantageous. […]

[2] = Solubility in water and PBS pH 7.4 (Tables 1 and 2); format: physicochemical
[3] = tested on: LPS-induced acute lung injury (ALI); assay: Mouse model of LPS-induced ALI, BALF cell count and BALF protein; format: in vivo; conditions: for percent reduction in LPS-induced increase in BALF cell count / percent reduction in LPS-induced increase in BALF protein: mean ± SEM
Protocol: LPS was instilled into the trachea of anesthetized mice. […] The efficacy endpoints were total cell counts and total protein in BALF. All studies were conducted using vehicle negative controls and dexamethasone (5 mg/kg IP at T=0 and 6) as a positive control. Data were analyzed by 1-way ANOVA followed by Tukey's multiple comparison test (GRAPHPAD PRISM® software, version 6.05). […] Reductions in BALF total protein were also observed. […]

[4] = tested on: Acinetobacter baumannii (AB) HUMC1; format: in vivo, mouse
Protocol: Briefly, CD-1 male mice were made neutropenic with 200 mg/kg cyclophosphamide and 250 mg/kg cortisone acetate (in 0.05% Tween 80) on Days −2 and +3. On Day 0, neutropenic mice were infected with Acinetobacter baumannii (AB) HUMC1 (virulent strain; see Luo G, et al. J Antimicrob Chemother. 2012; 67:1439-45 and Luo G, et al. PloS one. 2012; 7:e29446) via inhalation. Treatment with “NAV-” compound was initiated at three hours post infection.
Mice can be made neutropenic by injecting them with cyclophosphamide (200 mg/kg IP) and cortisone acetate (250 mg/kg, subcutaneously) on day −2 and +3 relative to infection. To induce AB pneumonia, neutropenic mice can be infected by aerosolizing AB into an inhalational chamber for one hour through a nebulizer as previously described (see Luo G, et al. J Antimicrob Chemother. 2012; 67:1439-45). Dosing and frequency of treatment can be dictated by the PK and ALI studies conducted in Example 6. Placebo mice can receive vehicle. […] Treatment can begin three hours after infection and continue through Day +7, and survival of mice (the primary endpoint) can be followed for 28 days post-infection. Each group may comprise 10 mice and each experiment may be repeated once (for a total of 20 mice per treatment group) to detect a three-day difference in survival by the Log Rank test (α=0.05).

[5] = PK of NAV-A after IV dosing of NAV-B to rats; format: in vivo, rat
Protocol: (§1) The PK profile of NAV-A was determined following intravenous (IV) and intraperitoneal (IP) administration of prodrug NAV-B to rats and mice, respectively. […] In this experiment, only the appearance and PK profile of NAV-A was followed, using an established LC/MS method. […] Of note was the very rapid appearance of NAV-A in plasma of the rats receiving NAV-B IV; the highest plasma concentration observed was at five minutes post-dose, the first time point measured. […] Near peak plasma levels of NAV-A were observed within 30 minutes.

[6] = PK of NAV-A after IP dosing of NAV-B to mice; format: in vivo, mouse; conditions: six-hour period after IP NAV-B 43 mg/kg
Protocol: as §1

[7] = tested on: multidrug-resistant Pseudomonas aeruginosa (PA); assay: Multidrug-resistant Pseudomonas aeruginosa mouse model of pneumonia; format: in vivo; conditions: NAV-AAR′ 38 and 64 mg/kg subcutaneous once daily for 6 days
Protocol: NAV-AAR′ is also active in a multidrug-resistant Pseudomonas aeruginosa (PA) mouse model of pneumonia. […] NAV-AAR′ was administered by subcutaneous injection once daily for 6 days. The antibiotic meropenem was ineffective against MDR PA in this model.

Stability in solution = format: physicochemical; conditions: room temperature, protected from light
alkaline phosphatase = assay: Alkaline phosphatase substrate; format: in vitro ADME; conditions: metabolized to active metabolite NAV-AAC′
[8] = Solubility of ARF6 prodrugs in various vehicles (Table 4); format: physicochemical
Plasmodium berghei ANKA = assay: Mouse model of cerebral malaria; conditions: NAV-B 42.75 mg/kg IP daily for 11 days from day 3; 14 days post-infection; dihydrochloride
Description: Mice were infected with Plasmodium berghei ANKA on day 0. Treatment was initiated on day 3. […] Surviving mice were sacrificed on day 14.

[9] = tested on: LPS-induced endotoxic shock; conditions: LPS 25 mg/kg IP, peptide IV; cited from earlier work
ARF6 [10] = molecular target: T1, ARF6; conditions: HMVEC-D cells; cited from earlier work
VE-cadherin = conditions: cited from earlier work
vascular leak = conditions: in vivo; cited from earlier work
[11] = Table 1, water, read-out: Solubility Water
[12] = aqueous buffer, Table 1, PBS pH 7.4, read-out: Solubility PBS pH 7.4
[13] = NAV-AAR′ 38 mg/kg or 64 mg/kg intravenous

O=c1cc(-c2ccc([N+](=O)[O-])cc2O)n2nc(Cc3ccccc3)c(-c3ccc(Cl)cc3)c2[nH]1 [NAV-A, 2-Benzyl-3-(4-chlorophenyl)-7-(2-hydroxy-4-nitro-phenyl)-4H-pyrazolo[1,5-a]pyrimidin-5-one]
IC50 (ARF6 [1]; Table 1, read-out: ARF6 IC50): 2.7 µM
solubility [2, 11]: 35 µM
solubility [2, 12]: 8 µM
percent reduction in LPS-induced increase in BALF cell count ([3]; 30 mg/kg IP, T = 0): 57 ± 9%
percent reduction in LPS-induced increase in BALF protein ([3]; 30 mg/kg IP, T = 0): 36 ± 13%
percent reduction in LPS-induced increase in BALF cell count ([3]; 30 mg/kg IP, T = 3): 55 ± 3%
percent reduction in LPS-induced increase in BALF protein ([3]; 30 mg/kg IP, T = 3): 23 ± 12%
percent reduction in LPS-induced increase in BALF cell count ([3]; 60 mg/kg IP, T = 0): 95 ± 4%
percent reduction in LPS-induced increase in BALF protein ([3]; 60 mg/kg IP, T = 0): 46 ± 24%
percent reduction in LPS-induced increase in BALF cell count ([3]; 60 mg/kg IP, T = 3): 91 ± 1%
percent reduction in LPS-induced increase in BALF protein ([3]; 60 mg/kg IP, T = 3): 55 ± 6%
BALF total protein ([3]; NAV-A IP): Reductions
total number of cells in BALF ([3]; NAV-A IP 60 mg/kg (T=0), 30 mg/kg (T=3), 60 mg/kg (T=3)): significant decreases
appearance and weight gain of treated mice ([4]; NAV-A 30 mg/kg IP once daily): appeared healthy with normal weight gain
survival ([4]; NAV-A 30 mg/kg IP once daily for seven days, from 3 h post infection, DMA/PEG300 vehicle): 50%
time of highest plasma concentration observed ([5]; NAV-A after IV NAV-B, rats, first time point measured): five
exposure of NAV-A ([5]; after administration of NAV-B): excellent exposure
plasma levels of NAV-A [6]: high and sustained plasma levels

Cc1ccc(-c2c[nH]c3c(-c4ccc(Cl)cc4)c(Cc4ccccc4)nn3c2=O)c(OP(=O)([O-])[O-])c1.[Na+].[Na+] [NAV-AAR′]
IC50 (ARF6 [1]; Table 2, read-out: ARF6 IC50): 1 to 2 µM
IC50 (ARF6 [1]; approximately, read-out: ARF6 IC50): 1 to 2 µM
solubility ([2]; Table 2, water, read-out: Solubility Water): > 50 mg/mL
number of total (nucleated) cells in BALF [3, 13]: significant reductions; also recorded: decrease
protein concentration in BALF [3, 13]: significant reductions; also recorded: decrease
survival in MDR PA pneumonia [7]: improve survival; also recorded: increase in survival
stable in solution (Stability in solution): up to 4 months
substrate for alkaline phosphatase (alkaline phosphatase): substrate for alkaline phosphatase
solubility (Aqueous solubility): ≤ 50 mg/mL

NCCCC[C@H](N)C(=O)Oc1cc([N+](=O)[O-])ccc1-c1cc(=O)[nH]c2c(-c3ccc(Cl)cc3)c(Cc3ccccc3)nn12 [NAV-B, [2-[2-benzyl-3-(4-chlorophenyl)-5-oxo-4H-pyrazolo[1,5-a]pyrimidin-7-yl]-5-nitro-phenyl] (2S)-2,6-diaminohexanoate dihydrochloride]
IC50 (ARF6 [1]; Table 1, read-out: ARF6 IC50): 2.6 µM
IC50 (ARF6 [1]; Table 4, read-out: ARF6 inhibition IC50): 2.6 µM
solubility [2, 11]: 425 µM
solubility [2, 12]: 1.7 µM
solubility ([8]; 20 mM Na citrate buffer, pH 3.1, aqueous buffer, kinetic from dmso stock, diluted from 10 mM solution in DMSO, read-out: Solubility (μM) 20 mM Na Citrate, pH 3.1): 280 µM
solubility ([8]; 0.1% Tween 80 in D5W, aqueous with cosolvent or surfactant or cyclodextrin, kinetic from dmso stock, diluted from 10 mM solution in DMSO, read-out: Solubility (μM) 0.1% Tween 80 in D5W): 42 µM
solubility ([8]; DPBS, pH 7.4, aqueous buffer, kinetic from dmso stock, diluted from 10 mM solution in DMSO, read-out: Solubility (μM) DPBS, pH 7.4): 1 µM
solubility ([8]; saline or isotonic, thermodynamic from solid, D5W, prepared from powder, read-out: Solubility (μM) D5W Prepared from powder): 14000 µM
solubility ([8]; water, kinetic from dmso stock, diluted from 10 mM solution in DMSO, read-out: Solubility (μM) H2O): 400 µM
concentration of cells in BALF ([3]; NAV-B 42.75 mg/kg IP): significant effect
concentration of protein in BALF ([3]; NAV-B 42.75 mg/kg IP): significant effect
reduction in LPS-induced BALF cell count ([3]; NAV-B 42.75 mg/kg IP at T=0 (equivalent to 30 mg/kg NAV-A), FIG. 10A marks a and b, dihydrochloride): 62% and 100%
reduction in BALF cell count ([3]; NAV-B 43 mg/kg IP at T=0): 70%
survival ([4]; NAV-B 42.75 mg/kg IP once daily for 7 days (equivalent to NAV-A 30 mg/kg), normal saline vehicle): 90%
solubility (Aqueous solubility; acidic aqueous media, aqueous buffer): > 50 mg/mL
survival of malaria-infected mice (Plasmodium berghei ANKA): reduced mortality; also recorded: significant improvement in survival

MyrARF6 2-13: myristoylated peptide composed of amino acids 2-13 of ARF6, understood to inhibit ARF nucleotide exchange (Myristoyl-GKVLSKIFGNKE; UniProt P62330 2-13, looked up, fragment)
survival during endotoxemia [9]: enhanced survival
ARF6 activation (ARF6 [10]): reduced ARF6 activation
VE-cadherin at cell junctions (VE-cadherin): increased VE-cadherin at cell junctions
leak of Evans blue dye from the blood into lungs and kidneys (vascular leak): prevented the leak
